Laboratory results reported in patent US6387880B1, “Transdermal N-[N-[5-[4-(aminoiminomethly)phenyl]-1-oxopentyl]-L-α-aspartyl]-L-phenylalainine or its esters and their pharmaceutically acceptable salts” (G.D. Searle & Co., priority 1996, dated 2002).
Values joined by “and” are separate entries in the source; they are usually repeats but may differ in a detail not shown here. Equal values may be shown once.

Assay: Transdermal shaved rat model: radiolabelled compound in gel patch, amount recovered in urine and feces
Conditions: for Mg transported in Feces 24 Hrs / Mg transported in Feces 48 Hrs / Mg transported in Feces 72 Hrs / Mg transported in Urine 24 Hrs / Mg transported in Urine 48 Hrs / Mg transported in Urine 72 Hrs / Mg transported Total (feces + urine) / Mg transported Total, Mean: diethyl ester section, transdermal patch; for Mg transported in Feces 24 Hrs / Mg transported in Feces 48 Hrs / Mg transported in Feces 72 Hrs / Mg transported in Urine 24 Hrs / Mg transported in Urine 48 Hrs / Mg transported in Urine 72 Hrs / Mg transported Total (feces + urine): individual rats; for Mg transported Total (feces + urine): 72 Hrs; for Mg transported Total, Mean: mean of 4 rats

Compound: CCOC(=O)C[C@H](NC(=O)CCCCc1ccc(C(=N)N)cc1)C(=O)N[C@@H](Cc1ccccc1)C(=O)OCC [N-[N-[5-[4-(aminoiminomethyl)phenyl]-1-oxopentyl]-L-α-aspartyl]-L-phenylalanine, diethyl ester]
- average amount delivered (2.5 cm^2 patch, rat): 4.6 ± 1.9 mg
- Mg transported in Feces 24 Hrs (Ethanol): 0.05 Mg and 0.01 Mg (2×) and 0.04 Mg
- Mg transported in Feces 48 Hrs (Ethanol): 3.16 Mg and 2.44 Mg and 4.09 Mg and 1.20 Mg
- Mg transported in Feces 72 Hrs (Ethanol): 1.51 Mg and 2.33 Mg and 1.67 Mg and 0.43 Mg
- Mg transported in Urine 24 Hrs (Ethanol): 0.02 Mg and 0.01 Mg and 0.00 Mg (2×)
- Mg transported in Urine 48 Hrs (Ethanol): 0.27 Mg and 0.12 Mg and 0.16 Mg and 0.13 Mg
- Mg transported in Urine 72 Hrs (Ethanol): 0.42 Mg and 0.19 Mg and 0.11 Mg (2×)
- Mg transported Total (feces + urine) (Ethanol): 5.43 Mg and 5.10 Mg and 6.07 Mg and 1.88 Mg
- Mg transported Total, Mean (Ethanol): 4.62 Mg
- Mg transported in Feces 24 Hrs (Saline): 0.48 Mg and 0.67 Mg and 0.02 Mg (2×)
- Mg transported in Feces 48 Hrs (Saline): 4.59 Mg and 3.88 Mg and 0.61 Mg and 1.21 Mg
- Mg transported in Feces 72 Hrs (Saline): 0.84 Mg and 1.17 Mg and 0.49 Mg and 0.67 Mg
- Mg transported in Urine 24 Hrs (Saline): 0.19 Mg and 0.17 Mg and 0.00 Mg (2×)
- Mg transported in Urine 48 Hrs (Saline): 0.20 Mg and 0.16 Mg and 0.15 Mg and 0.13 Mg
- Mg transported in Urine 72 Hrs (Saline): 0.09 Mg and 0.11 Mg and 0.05 Mg and 0.10 Mg
- Mg transported Total (feces + urine) (Saline): 6.39 Mg and 6.16 Mg and 1.32 Mg and 2.09 Mg
- Mg transported Total, Mean (Saline): 3.99 Mg
